Experimental data published in US9981923B2, “1,2,3 Triazole antifungal agents and preparation thereof” (COUNCIL OF SCIENTIFIC & INDUSTRIAL RESEARCH, priority 2014, dated 2018).
Values after ≈ are worked out from the molar mass of the structure shown.

Columns and labels:
[1] = tested on: reactive oxygen species (ROS); assay: ROS production using dichlorofluorescin diacetate dye; assay type: cell-based; conditions: C. albicans ATCC 24433, dichlorofluorescin diacetate dye
Protocol: Apart from lanosterol 14 a-demethylase inhibition, few azoles like miconazole are known to exert their antifungal action by reactive oxygen species (ROS) generation. Therefore ROS production in C. albicans ATCC 24433 was evaluated for these compounds by using dichlorofluorescin diacetate dye. […] ROS can damage a wide range of molecules, including nucleic acids, proteins and lipids, can cause apoptosis, necrotic death and with this wide range of targets it is difficult to determine which events lead to loss of viability of cells following damage.

[2] = tested on: Aspergillus niger ATCC 10578; assay: Antifungal susceptibility by microbroth dilution (CLSI); assay type: cell-based; conditions: Table 1; 48 h, >90% inhibition of growth
Protocol: (§1) The synthesized compounds were evaluated for antifungal susceptibility by microbroth dilution method according to the recommendations of the Clinical Laboratory Standards Institute (CLSI 2008). Briefly, appropriate amount of compounds were dissolved in dimethyl sulfoxide to get 100× final strength. The stock was then diluted 1:50 in RPMI/YPG medium and 200 μl from this was added to the first row of a 96-well microtitre plate. The compounds were serially diluted two fold in successive wells to get a range of 1-128 μg/ml. Fungal yeast cells (˜2×10^3 cfu/mL), freshly grown in YPG broth in logarithmic phase, were suspended in the medium and inoculated (100 μl) in the wells of the plate. For filamentous fungi, 2×10^4 spores/mL were added. The microtitre plate was incubated for 48 h, and the absorbance was measured at 600 nm by using microtitre plate reader to assess cell growth.

[3] = tested on: Cryptococcus neoformans ATCC 34664; assay: as above; assay type: cell-based; conditions: Table 1; 48 h, >90% inhibition of growth
Protocol: as §1

[4] = tested on: Candida albicans ATCC 24433; assay: as above; assay type: cell-based; conditions: Table 1; 48 h, >90% inhibition of growth; range 1-128 μg/ml
Protocol: as §1

[5] = tested on: Aspergillus fumigatus MCC 1046; assay: as above; assay type: cell-based; conditions: Table 1; 48 h, >90% inhibition of growth
Protocol: as §1

[6] = tested on: Candida albicans ATCC 10231; assay: as above; assay type: cell-based; conditions: Table 1; 48 h, >90% inhibition of growth
Protocol: as §1

[7] = tested on: Candida glabrata NCYC 388; assay: as above; assay type: cell-based; conditions: Table 1; 48 h, >90% inhibition of growth
Protocol: as §1

[8] = tested on: ergosterol; assay: Effect of the compounds on sterol profile (spectrophotometric ergosterol quantitation); assay type: cell-based, C. albicans ATCC 24433
Protocol: Inhibition of lanosterol 14 α-demethylase by azoles results in depletion of ergosterol. The depletion can be quantified by spectrophotometry. Briefly, Overnight grown C. albicans ATCC 24433 (1×10^6 cfu/ml) cells were inoculated in a series of flasks containing 50 ml of Yeast extract Peptone Glucose (YPG) broth containing […] of fluconazole per ml as well as 0.5 MIC and MIC of the lead compounds. The cultures were incubated for 24 h with shaking at 30° C. The stationary-phase cells were harvested by centrifugation […] and washed once with sterile distilled water. The net wet weight of the cell pellet was determined. Three milliliters of 25% alcoholic potassium hydroxide solution (25 g of […] and 35 ml of sterile distilled water, brought to 100 ml with 100% ethanol), was added to 125 mg of pellet and vortex mixed for 1 min. Cell suspensions were transferred to sterile borosilicate glass screw-cap tubes and were incubated in an 85° C. water bath for 1 h. Following incubation, tubes were allowed to cool to room temperature. Sterols were then extracted by addition of a mixture of 1 ml of sterile distilled water and 3 ml of n-heptane followed by vigorous vortex mixing for 3 min. The heptane layer was transferred to a clean borosilicate glass screw-cap tube. The sterol extract was scanned spectrophotometrically between 220 and 300 nm with a Spectrophotometer.

[9] = tested on: pathogenic fungi; assay: Antifungal activity, overall assessment of the microbroth dilution results; assay type: cell-based; conditions: based on the MIC results
Protocol: as §1

## CCC(O)(c1ccccc1)c1cn(-c2cc(Cl)ccc2O)nn1 (stereo not shown) [Compound 1da]
[1]
  ROS generation: dose dependent increase in ROS generation
[2]
  MIC: >128 µg/mL
[3]
  MIC: 16 µg/mL (≈ 48.5 µM)
[4]
  MIC: 16 µg/mL (≈ 48.5 µM)
[5]
  MIC: >128 µg/mL
[6]
  MIC: 16 µg/mL (≈ 48.5 µM)
[7]
  MIC: 8 µg/mL (≈ 24.3 µM)
[8]; C. albicans ATCC 24433, 24 h, 0.5 MIC and MIC of the lead compounds
  ergosterol depletion (sterol profile, height of absorbance peaks 220-300 nm): no ergosterol depletion was observed
[8]; C. albicans ATCC 24433 sterol profile
  inhibition of lanosterol 14 α-demethylase enzyme (concluded from ergosterol depletion): potent inhibitors
[9]
  antifungal activity, overall assessment: promising molecules
